Results reported in patent publication US8273768B2, “Iso CA-4 and analogues thereof as potent cytotoxic agents inhibiting tubuline polymerization” (Centre National de la Recherche Scientifique (CNRS), priority 2007, dated 2012).

Experiments:
[1] = test system: human endothelial cells (EAhy926); test: Formation of vascular tubes on Matrigel; assay type: cell-based; settings: EAhy926, treatment of 3 hours, 10 nM
Description: In order to know whether the compound (I-1) perturbs the spatial organization of endothelial cells in structures similar to vascular capillaries, human endothelial cells (EAhy926) were treated immediately after cultivation on Matrigel® or after 24 hours of cultivation, in order to allow them to form vascular tubes.
In order to evaluate the antivascular activity of the compound (I-1), the EAhy926 cells were cultivated in 96-well culture plates covered beforehand with an extract of extracellular matrix (Matrigel™, BD Biosciences, Le Pont-de-Claix, France) in which they spontaneously form capillary tubes.
First of all, we measured the capacity of the compound (I-1) of inhibiting the formation of the capillary network. Matrigel™ is deposited in 96-well culture plates in an amount of 70 μL/well and left to incubate at 37° C. for 45 minutes in order to allow its polymerization. 15,000 cells suspended in 150 μL of culture medium are sown per well in each of the wells containing Matrigel™ in the absence or in the presence of different concentrations of the compound (I-1), with 3 wells per concentration. After 1 hour, 3 hours and 6 hours of incubation at 37° C., the cells are observed and photographed by means of an optical microscope of the TE2000 type (Nikon, France), equipped with a camera. […]

[2] = Cytotoxicity on human endothelial cells; assay type: cell-based; settings: human; EAhy926, measured after 72 hours; read-out: IC50, cytotoxic activity on EAhy926 (FIG. 4 legend)
Description: (§1) Cytotoxicity of compound (I-1) towards human endothelial cells (EAhy926) was evaluated after 1 hour, 3 hours and 6 hours of treatment. The number of living cells was either counted immediately at the end of the treatment (FIG. 3) or 72 hours after stopping the treatment (FIG. 4). It is observed that when the endothelial cells are treated for 72 hours with the compound (I-1), the IC50 is 2 nM.
(§2) The EAhy926 cells (immortalized HUVEC macrovascular endothelial cells) were cultivated in a culture medium “Dulbecco minimal essential medium” (DMEM) containing 4.5 g/L of glucose and supplemented with 10% fetal calf serum, 1% glutamine and a supplement of HAT (100 μM of hypoxanthine, 0.4 μM of aminopterin and 16 μM of thymidine, Invitrogen; Cergy-Pontoise, France). The cells were maintained in the culture at 37° C. in a humid atmosphere containing 5% CO2.
(§3) The cells were sown in 96-well culture plates in an amount of 3,000 cells per well in 50 μL of culture medium. […] At the end of the treatment, the number of cells was evaluated by using the reagent “CellTiter-Blue™” (Promega, Wis., USA) as described earlier. In parallel, after 1 hour, 3 hours or 6 hours of treatment with compound (I-1), the culture medium was removed and replaced with fresh medium for 72 hours and the number of living cells was then measured by using the reagent “CellTiter-Blue™”.

[3] = test system: human endothelial cells (EAhy926); test: Cytotoxicity on human endothelial cells; assay type: cell-based; settings: EAhy926, 1 hour, 3 hours or 6 hours of treatment, dose of 10 nM
Description: as §1, §2, §3

HCT116 cells = test: Study of apoptosis (caspase-3/7 activity); assay type: cell-based, human; settings: HCT116, 24 hours
Description: (§4) In order to specify whether the compound (I-1) causes cell death by apoptosis, the intracellular enzymatic activity of caspases 3 and 7 was evaluated in cultures of K562, HCT116 and MDA-MB 231 cells exposed for 24 hours to the action of the compound (I-1).
(§5) Apoptosis is measured by using the kit “Apo-one homogeneous caspase-3/7 assay” (Promega Co., WI, USA) by following the recommendations of the manufacturer. Briefly, the cells are sown in 96-well culture plates with 50,000 cells per well in 100 μL of culture medium. After 24 hours of incubation, the medium is replaced with 100 μL of culture medium containing different concentrations of the compound […] or 0.1% DMSO (negative control). After 24 hours of treatment, 100 μL of reagent containing the substrate of the caspase and the buffer of the reaction are added into each well. After 1 hour of incubation, the fluorescence emitted by the cell is measured at 527 nm with a microplate reader of the Victor type (Perkin-Elmer, USA).

K562 cells = test: Study of apoptosis (caspase-3/7 activity); assay type: cell-based, human; settings: K562, 24 hours
Description: as §4, §5

MDA-MB 231 cells = test: Study of apoptosis (caspase-3/7 activity); assay type: cell-based, human; settings: MDA-MB 231, 24 hours
Description: as §4, §5

[4] = target: T1, purified tubulin from pig brains (Sus scrofa, UniProt P02550+P02554); test: Inhibition of polymerization of tubulin (turbidimetry); assay type: biochemical; settings: pig brain tubulin, turbidimetry at 350 nm
T1 construct: from pig brains, where it forms 20-25% of the soluble proteins; from tissue; host or cells: pig brain
Description: Tests relating to the inhibition of polymerization of tubulin were carried out on compounds which had the best cytotoxic activities. These tests were carried out on purified tubulin by the Shelanski method (Shelanski, M. C.; Gaskin, F.; Cantor, C. R. Proc. Natl. Acad. Sci. USA, 1973, 70, 765-768) from pig brains, where it forms 20-25% of the soluble proteins. Purification method is based on temperature-dependent assembling-disassembling cycles. Polymerization of tubulin was tracked with turbidimetry according to the Gaskin method (Gaskin, F.; Cantor, C. R.; Shelanski, M. L. J. Bio. Mol. 1974, 89, 737) at a wavelength of 350 nm. The different samples were dissolved in DMSO and incubated for 10 minutes at 37° C. and then for 5 minutes at 0° C.
The CA-4 compound and DMSO were taken as references.
The tests have shown for these compounds an activity inhibiting polymerization of tubulin similar to the one of the reference compound CA-4 (of the order of only one micromolar concentration to a few tens of micromolar concentrations).

T1 sequence (P02554 whole entry): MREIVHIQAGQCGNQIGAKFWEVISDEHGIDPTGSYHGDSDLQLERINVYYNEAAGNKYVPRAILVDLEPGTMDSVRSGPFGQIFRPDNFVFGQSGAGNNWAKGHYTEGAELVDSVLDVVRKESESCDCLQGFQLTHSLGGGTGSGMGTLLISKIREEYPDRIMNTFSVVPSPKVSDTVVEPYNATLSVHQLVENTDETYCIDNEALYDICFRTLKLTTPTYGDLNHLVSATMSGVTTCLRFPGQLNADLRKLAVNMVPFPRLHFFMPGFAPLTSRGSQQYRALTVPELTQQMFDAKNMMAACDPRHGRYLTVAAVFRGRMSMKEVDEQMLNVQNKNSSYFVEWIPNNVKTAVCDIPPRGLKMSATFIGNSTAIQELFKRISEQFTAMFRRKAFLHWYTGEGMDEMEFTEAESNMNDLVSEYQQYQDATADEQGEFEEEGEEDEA
T1 sequence (P02550 whole entry): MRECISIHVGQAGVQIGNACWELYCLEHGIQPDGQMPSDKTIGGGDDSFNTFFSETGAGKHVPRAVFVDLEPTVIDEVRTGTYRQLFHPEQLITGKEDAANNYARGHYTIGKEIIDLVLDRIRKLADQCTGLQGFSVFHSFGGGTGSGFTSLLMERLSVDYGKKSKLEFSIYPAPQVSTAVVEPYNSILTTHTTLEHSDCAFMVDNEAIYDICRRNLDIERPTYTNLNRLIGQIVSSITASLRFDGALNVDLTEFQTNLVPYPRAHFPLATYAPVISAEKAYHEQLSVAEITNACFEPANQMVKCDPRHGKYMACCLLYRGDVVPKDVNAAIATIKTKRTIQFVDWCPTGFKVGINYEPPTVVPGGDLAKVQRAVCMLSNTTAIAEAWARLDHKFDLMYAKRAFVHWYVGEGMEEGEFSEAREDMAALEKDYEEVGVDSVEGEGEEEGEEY

## C=C(c1ccc(OC)c(O)c1)c1cc(OC)c(OC)c(OC)c1 [(I-1)]
[1]
  Number of vascular tubes on Matrigel: very significant decrease in the number of vascular tubes
[2]
  IC50 at 72 h: 2 nM
[3]
  Cytotoxic activity on endothelial cells, short treatment: does not exhibit any cytotoxic activity
HCT116 cells
  Induction of apoptosis (caspases 3 and 7): strong induction of apoptosis
K562 cells
  Induction of apoptosis (caspases 3 and 7): strong induction of apoptosis
MDA-MB 231 cells
  Induction of apoptosis (caspases 3 and 7): strong induction of apoptosis
[4]
  IC50: 2200 nM
